Here are results for three compounds from paper PMC11221360 (Molecular psychiatry, 2023).

Data set [1] has as its system rats. In words: Catalepsy score. Type of data set: in vivo, rat.
For data set [2], the system named is mice. In words: Acute locomotor activity. Type of data set: in vivo, mouse. As to conditions: for most effective dose for locomotor activation (inverted U) / effect on locomotion: sc; for effect on locomotion: after 60 minutes of habituation, (S)-MTD up to 100 mg/kg.
The subject of data set [3] is rats. In words: Hotplate analgesia. Format: in vivo, rat.
Data set [4] has as its system rats. In words: Intravenous self-administration. Format: in vivo, rat. As to conditions: for shape of IVSA dose-response / unit dose with peak infusion rates in IVSA dose response: trained rats; for acquisition of IVSA in dose finding experiments: rats, (R)-MTD at 50 μg/kg/infusion, (S)-MTD even at high unit doses.
For data set [5], the system named is mice. In words: Psychomotor sensitization, repeated injections in open-field chambers. As to conditions: for psychomotor sensitization: ip, three days, (R)-MTD 2, 5, 10, (R,S)-MTD 4, 10, 20, (S)-MTD 20, 30, 40 mg/kg. Type of data set: in vivo, mouse.
The target of the next data set is SERT (Homo sapiens, UniProt P31645). The data set is described as follows: Receptor and enzyme competitive screen. Format: binding. As to conditions: 100 nM.
Chain of SERT (P31645 whole entry, species assumed, the tested form may be a part): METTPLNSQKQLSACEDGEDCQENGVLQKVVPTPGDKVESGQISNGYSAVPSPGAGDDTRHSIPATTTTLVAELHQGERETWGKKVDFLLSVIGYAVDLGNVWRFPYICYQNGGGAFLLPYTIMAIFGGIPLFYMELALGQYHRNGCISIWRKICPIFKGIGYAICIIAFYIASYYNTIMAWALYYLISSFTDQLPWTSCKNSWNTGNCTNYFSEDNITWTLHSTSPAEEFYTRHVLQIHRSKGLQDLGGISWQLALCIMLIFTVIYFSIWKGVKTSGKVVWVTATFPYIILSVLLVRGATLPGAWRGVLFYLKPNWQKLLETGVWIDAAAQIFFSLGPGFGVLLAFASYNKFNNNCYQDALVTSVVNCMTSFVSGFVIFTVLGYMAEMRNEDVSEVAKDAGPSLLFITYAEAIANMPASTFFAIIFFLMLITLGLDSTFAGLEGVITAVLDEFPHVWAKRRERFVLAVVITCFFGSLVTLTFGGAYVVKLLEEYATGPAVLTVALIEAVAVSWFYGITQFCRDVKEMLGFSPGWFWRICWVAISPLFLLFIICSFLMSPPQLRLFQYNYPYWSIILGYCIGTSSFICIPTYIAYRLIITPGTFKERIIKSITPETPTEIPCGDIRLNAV
In data set [6] the test system is extracellular dopamine in rat VTA. The data set is described as follows: In vivo microdialysis, perfusion into VTA, somatodendritic dopamine release. As to conditions: for effect on extracellular dopamine: local perfusion, (S)-MTD up to 100 μM.
A further data set deals with NMDARs. As to conditions: ref [10], cited from earlier work.

Structures are written as SMILES.

Turning to `CCC(=O)C(CC(C)N(C)C)(c1ccccc1)c1ccccc1` (racemic) [(R,S)-MTD, (R,S)-methadone], in the data set with rats [1], the “cataleptic ED50 (%MPE)” value stood at 2.1 mg/kg and the “dose at which maximal cataleptic effects were observed” value amounted to 10 mg/kg. Besides, in the data set with mice [2], the “most effective dose for locomotor activation (inverted U)” value came out at 10 mg/kg and the effect on locomotion entry is reported as “increased locomotion”. For the same compound, in the data set on rats [3], the “hotplate ED50 (%MPE)” value was 1.2 mg/kg and the hotplate agonist profile result is on record as “full agonistic activity”. In addition, in the data set with rats [4], the “shape of IVSA dose-response” value was “inverted-U shaped dose-response curve” and the “unit dose with peak infusion rates in IVSA dose response” value came out at 0.05 mg/kg. Besides, the psychomotor sensitization entry with mice [5] is “failed to show sensitization at any dose”.
Turning to `CCC(=O)C(C[C@@H](C)N(C)C)(c1ccccc1)c1ccccc1` [(R)-MTD], in the data set with rats [1], the “cataleptic ED50 (%MPE)” value is listed as 0.9 mg/kg and the “dose at which maximal cataleptic effects were observed” value is given as 3 mg/kg. In the data set with mice [2], the “most effective dose for locomotor activation (inverted U)” value is given as 3 mg/kg and the effect on locomotion entry is on record as “increased locomotion”. In addition, at SERT, the “inhibition of binding at SERT” value amounted to 68%. In the data set on rats [3], the “hotplate ED50 (%MPE)” value was determined as 0.5 mg/kg and the hotplate agonist profile entry was “full agonistic activity”. Also, the “maximum consumed at the highest dose in IVSA” value with rats [4] (rats exposed to (R)-MTD, dose finding) is ~ 2 mg/kg. In the data set on rats [4], the “acquisition of IVSA in dose finding experiments” value is “readily self-administered”, the “shape of IVSA dose-response” value is listed as “inverted-U shaped dose-response curve” and the “unit dose with peak infusion rates in IVSA dose response” value came to 0.025 mg/kg. For the same compound, the psychomotor sensitization entry in the data set with mice [5] is on record as “produced psychomotor sensitization at 10 mg/kg”. The “effect on extracellular dopamine” value in data set [6] is “concentration-dependent increase in extracellular dopamine”.
Take `CCC(=O)C(C[C@H](C)N(C)C)(c1ccccc1)c1ccccc1` [(S)-MTD, (S)-methadone]: in the data set on rats [1] (up to 100 mg/kg), the “catalepsy score agonist profile” value was “partial agonist”. Moreover, the “effect on locomotor-stimulating effect of (R)-MTD (10 mg/kg, sc)” value with mice [2] ((S)-MTD 10, 30 mg/kg sc, 15 min before (R)-MTD) was “dose-dependently counteracted”. Moreover, the effect on locomotion entry in the data set with mice [2] is “did not produce any significant locomotor-activating effects”. In addition, the hotplate agonist profile result in the data set on rats [3] is “full agonistic activity”. Also, the “IVSA in (R)-MTD-trained rats switched to (S)-MTD” value in the data set with rats [4] (500 μg/kg/infusion) was “reliable IVSA”. Besides, the “cumulative dose consumed at the highest dose in IVSA” value in the data set with rats [4] ((R)-MTD-trained rats switched to (S)-MTD) is on record as ~ 30 mg/kg. In addition, in the data set on rats [4], the “acquisition of IVSA in dose finding experiments” value is given as “never acquired IVSA” and the “shape of IVSA dose-response” value is recorded as “no evidence of dose response”. The “effect of pretreatment on (R)-MTD-induced (10 mg/kg, ip) sensitization” value with mice [5] ((S)-MTD 10 or 30 mg/kg) is recorded as “did not prevent psychomotor sensitization”. The psychomotor sensitization entry in the data set on mice [5] is listed as “failed to show sensitization at any dose”. Also, the “affinity for the MOR, times greater than affinity for the NMDAR” value in the data set on NMDARs ([15]) is listed as ~ 300 times. For the same compound, the “affinity at NMDARs” value with NMDARs was 2.6 to 7.4 µM. In data set [6] (co-perfusion, (S)-MTD 100 μM), the “effect on (R)-MTD (10 μM)-induced dopamine release” value is “completely counteracted”. Moreover, the “effect on extracellular dopamine” value in data set [6] is given as “did not induce any significant effect”.
